What all share (test): Post-emergence efficacy, glasshouse spray test
What all share (format): in vivo

For assay [1], the system named is Euphorbia heterophylla (EPHHL). The note with it: Euphorbia heterophylla, post-emergence, 312 h, evaluated after 13 days, read-out: Control of weed species EPHHL after post-emergence application (100=total damage to plant; 0=no damage to plant); for pest or weed control at 1000 g/ha: application rate 1000 g/Ha. The method, boiled down:
(§1)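 Seeds were sown in pots of standard soil and grown for 14 days under controlled glasshouse conditions. Seedlings were sprayed with the compound emulsified via acetone and IF50 and diluted in sodium lauryl ether sulphate (0.25% or 1%) with 1% ammonium sulphate. They were kept at 24/16 °C with 14 h light and 65% humidity and rated for damage on a 0–100 scale after 13 days.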

Assay [2] relates to Digitaria sanguinalis (DIGSA). The note with it: Digitaria sanguinalis, post-emergence, 312 h, evaluated after 13 days, read-out: Control of weed species DIGSA after post-emergence application (100=total damage to plant; 0=no damage to plant); for pest or weed control at 1000 g/ha: application rate 1000 g/Ha. A digest of the protocol:
as §1

The subject of assay [3] is Chenopodium album (CHEAL). The note with it: Chenopodium album, post-emergence, 312 h, evaluated after 13 days, read-out: Control of weed species CHEAL after post-emergence application (100=total damage to plant; 0=no damage to plant); for pest or weed control at 1000 g/ha: application rate 1000 g/Ha. A digest of the protocol: as §1
The subject of assay [4] is Echinochloa crus-galli (ECHCG). Particulars: Echinochloa crus-galli, post-emergence, 312 h, evaluated after 13 days, read-out: Control of weed species ECHCG after post-emergence application (100=total damage to plant; 0=no damage to plant); for pest or weed control at 1000 g/ha: application rate 1000 g/Ha. The method, boiled down: as §1
Assay [5] concerns Eleusine indica (ELEIN). Particulars: Eleusine indica, post-emergence, 312 h, evaluated after 13 days, read-out: Control of weed species ELEIN after post-emergence application (100=total damage to plant; 0=no damage to plant); for pest or weed control at 1000 g/ha: application rate 1000 g/Ha. A digest of the protocol:
as §1

The subject of assay [6] is Lolium perenne (LOLPE). Particulars: Lolium perenne, post-emergence, 312 h, evaluated after 13 days, read-out: Control of weed species LOLPE after post-emergence application (100=total damage to plant; 0=no damage to plant); for pest or weed control at 1000 g/ha: application rate 1000 g/Ha. A digest of the protocol:
as §1

The subject of assay [7] is Ipomoea hederacea (IPOHE). Particulars: Ipomoea hederacea, post-emergence, 312 h, evaluated after 13 days, read-out: Control of weed species IPOHE after post-emergence application (100=total damage to plant; 0=no damage to plant); for pest or weed control at 1000 g/ha: application rate 1000 g/Ha. A digest of the protocol: as §1
For assay [8], the system named is Amaranthus palmeri (AMAPA). The note with it: Amaranthus palmeri, post-emergence, 312 h, evaluated after 13 days, read-out: Control of weed species AMAPA after post-emergence application (100=total damage to plant; 0=no damage to plant); for pest or weed control at 1000 g/ha: application rate 1000 g/Ha. The method, boiled down: as §1
The test system of assay [9] is Setaria faberi (SETFA). Particulars: Setaria faberi, post-emergence, 312 h, evaluated after 13 days, read-out: Control of weed species SETFA after post-emergence application (100=total damage to plant; 0=no damage to plant); for pest or weed control at 1000 g/ha: application rate 1000 g/Ha. A digest of the protocol: as §1

The source of these data is US20220046923A1, “HERBICIDAL CINNOLINIUM COMPOUNDS” (SYNGENTA CROP PROTECTION AG, priority 2018, published 2022).

Regarding `COc1ccc2n[n+](CC(=O)[O-])ccc2c1` [Compound A68], the pest or weed control at 1000 g/ha in assay [1] turned out to be 20%; in assay [2] it was 30%; in assay [3], 50%; in [4], 50%; in assay [5], 20%; in assay [6] it was 10%. The pest or weed control at 1000 g/ha in assay [7] was found to be 20%; in assay [8], 60%; in assay [9], 30%.

On to `C[C@H](CNS(=O)(=O)[O-])[n+]1ccc2ccccc2n1` [Compound A49], for which the pest or weed control at 1000 g/ha in assay [1] amounted to 90%; in assay [2], 70%; in assay [3] it was 90%; in assay [4], 60%; in assay [5], 90%; in assay [6], 50%. In addition, the pest or weed control at 1000 g/ha in [7] was 80%; in assay [8], 100%; in [9], 60%.

As for `O=S(=O)([O-])N1CCC[C@H]1C[n+]1ccc2ccccc2n1` [Compound A47], the pest or weed control at 1000 g/ha in assay [1] stood at 60%; in assay [2] it was 90%; in [3], 60%; in assay [4], 30%; in assay [5], 90%; in [6] it was 10%. Also, the pest or weed control at 1000 g/ha in assay [7] amounted to 20%; in [8], 100%; in [9] it was 40%.

`COP(=O)([O-])CCC[n+]1ccc2ccccc2n1` [Compound A72, 3-cinnolin-2-ium-2-ylpropyl(methoxy)phosphinate]: the pest or weed control at 1000 g/ha in [1] amounted to 50%; in assay [2], 50%; in assay [3], 70%; in [4], 50%; in assay [5], 70%; in assay [6] it was 50%. Also, the results for the pest or weed control at 1000 g/ha in assay [7], in [8] and in [9] were 100%, 70% and 60%, respectively.

On to `Cc1c[n+](CC(=O)[O-])nc2c(C)cccc12` [Compound A8], for which the pest or weed control at 1000 g/ha was found to be 40% in assay [1]; 30% in assay [2]; 60% in [3]; 20% in [4]; 50% in assay [5]; 10% in assay [6]. For the same molecule, the pest or weed control at 1000 g/ha in assay [7] was 30%; in [8] it was 50%; in assay [9], 10%.

As to `COC(=O)C[n+]1cc(C)c2ccccc2n1` [Compound A62], the pest or weed control at 1000 g/ha in assay [1] was 40%; in assay [2], 50%; in [3], 60%; in assay [4] it was 30%; in [5], 70%; in assay [6], 40%. Besides, the pest or weed control at 1000 g/ha in [7] came to 50%; in assay [8], 70%; in assay [9], 30%.

Consider `O=S(=O)(O)CC[n+]1cc(C2CC2)c2ccccc2n1` [Compound A79], for which the pest or weed control at 1000 g/ha turned out to be 40% in assay [1]; 20% in assay [2]; 30% in [3]; 20% in assay [4]; 10% in assay [5]; 10% in assay [6]. The pest or weed control at 1000 g/ha in assay [7] is 40%; in [8], 60%; in [9] it was 30%.

`O=P(O)(O)CCC[n+]1ccc2ccccc2n1` [Compound A70]: the pest or weed control at 1000 g/ha is 80% in assay [1]; 80% in assay [2]; 90% in assay [3]; 40% in assay [4]; 90% in assay [5]; 40% in assay [6]. Further, the results for the pest or weed control at 1000 g/ha in [7], in assay [8] and in assay [9] were 100%, 80% and 60%, respectively.

Regarding `N#Cc1cccc2cc[n+](CCS(=O)(=O)[O-])nc12` [Compound A110, 2-(8-cyanocinnolin-2-ium-2-yl)ethanesulfonate], the pest or weed control at 500 g/ha in assay [1] (application rate 500 g/Ha) worked out at 60%; in [2] (application rate 500 g/Ha), 20%; in [3] (application rate 500 g/Ha), 30%; in assay [4] (application rate 500 g/Ha) it was 20%; in assay [5] (application rate 500 g/Ha) it was 20%; in assay [6] (application rate 500 g/Ha), 0%. The results for the pest or weed control at 500 g/ha in assay [7] (application rate 500 g/Ha), in assay [8] (application rate 500 g/Ha) and in [9] (application rate 500 g/Ha) were 40%, 70% and 20%, respectively.

In the case of `O=C([O-])C[n+]1ccc2ccccc2n1` [Compound A2, 2-cinnolin-2-ium-2-ylacetate], the pest or weed control at 1000 g/ha amounted to 90% in assay [1]; 100% in assay [2]; 80% in assay [3]; 100% in assay [4]; 100% in assay [5]; 20% in assay [6]. Also, the pest or weed control at 1000 g/ha stood at 40% in assay [7], 100% in assay [8] and 80% in assay [9].

For the molecule `COc1cccc2cc[n+](CCS(=O)(=O)[O-])nc12` [Compound A86], the pest or weed control at 1000 g/ha in assay [1] was found to be 90%; in assay [2], 40%; in [3], 100%; in [4], 50%; in [5] it was 80%; in assay [6], 60%. Further, the pest or weed control at 1000 g/ha in assay [7] was determined as 90%; in assay [8] it was 100%; in [9], 50%.

`O=S(=O)([O-])CC[n+]1ccc2cc(Cl)ccc2n1` [Compound A88]: the pest or weed control at 1000 g/ha stood at 60% in assay [1]; 50% in [2]; 40% in [3]; 20% in assay [4]; 50% in assay [5]; 30% in assay [6]. The pest or weed control at 1000 g/ha stood at 20% in assay [7], 70% in assay [8] and 40% in [9].
